Measurements from ChEMBL document CHEMBL6153161, “Exploring Arylidene-Indolinone Ligands of Autophagy Proteins LC3B and GABARAP” (ACS Med Chem Lett, 2025).
pIC50, pKd: −log10 of the molar value.

What was measured:
[1] = Inhibition of GABARAP (unknown origin) expressed in Escherichia coli BL21(DE3) incubated for 45 mins by AlphaScreen assay; parameters: species or system Homo sapiens
[2] = target: T1, Microtubule-associated protein 1 light chain 3 beta (Homo sapiens, UniProt Q9GZQ8); experiment: Inhibition of LC3B (unknown origin) expressed in Escherichia coli BL21(DE3) incubated for 45 mins by AlphaScreen assay
[3] = target: T1, Microtubule-associated protein 1 light chain 3 beta; experiment: Binding affinity against recombinant LC3B (unknown origin) assessed as dissociation constant by 2D-NMR titration assay
[4] = tested on: Bacteria; experiment: Inhibition of beta-lactamase (unknown origin) at up to 25 uM incubated for 15 mins by beta-lactamase assay
[5] = target: T1, Microtubule-associated protein 1 light chain 3 beta; experiment: Binding affinity against recombinant LC3B (unknown origin) assessed as dissociation constant by surface plasmon resonance assay
[6] = target: T1, Microtubule-associated protein 1 light chain 3 beta; experiment: Binding affinity against recombinant LC3B (unknown origin) assessed as dissociation constant by small molecule microarray with a scanning oblique-incidence reflectivity difference microscopic analysis
[7] = Binding affinity to GABARAP (unknown origin) assessed as dissociation constant by biolayer interferometry analysis; parameters: species or system Homo sapiens

COc1ccc(/C=C2/C(=O)Nc3ccc(I)cc32)cc1
pIC50 [1]: < 4.96
pIC50 [2]: < 4.96

Cc1ccc2c(c1)NC(=O)/C2=C/c1cc(Br)c(O)c(Br)c1
pIC50 [1]: 4.62

O=C1Nc2ccc(I)cc2/C1=C\c1ccc(C(=O)O)cc1
pIC50 [1]: 4.12
pIC50 [2]: 3.92

O=C1Nc2ccc(I)cc2/C1=C\c1cc(Br)cc(Br)c1
pIC50 [1]: < 5.19

O=C1Nc2ccc(I)cc2/C1=C\c1ccc[nH]1
pIC50 [1]: < 5.74
pIC50 [2]: < 5.74

Cc1ncsc1/C=C1/C(=O)Nc2ccc(I)cc21
pIC50 [1]: < 4.85

O=C1Nc2ccc(I)cc2/C1=C\c1cnc[nH]1
pIC50 [1]: < 4.15

O=C1Nc2ccc(I)cc2/C1=C\c1ccc(O)cc1
pIC50 [1]: < 5.00
pIC50 [2]: < 5.00

O=C1Nc2cc(I)ccc2/C1=C\c1cc(Br)c(O)c(Br)c1
pIC50 [1]: 4.92

O=C1Nc2ccc(Br)cc2/C1=C\c1cc(Br)c(O)c(Br)c1
pIC50 [1]: 4.89

O=C1Nc2cc(Cl)c(Cl)cc2/C1=C\c1cc(Br)c(O)c(Br)c1
pIC50 [1]: < 4.60

COC(=O)c1ccc2c(c1)NC(=O)/C2=C/c1cc(Br)c(O)c(Br)c1
pIC50 [1]: 5.24

O=C1Nc2ccc(I)cc2/C1=C\c1ccccc1
pIC50 [1]: < 4.60

O=C1Nc2ccc(I)cc2/C1=C\c1ccc(-c2ccc(C(F)(F)F)cc2)cc1
pIC50 [1]: < 6.00
pIC50 [2]: < 6.00

O=C1Nc2ccc(I)cc2/C1=C\c1cncs1
pIC50 [1]: < 5.46
pIC50 [2]: < 5.46

O=C1Nc2ccc(I)cc2/C1=C\c1cc(Br)c(O)c(Br)c1
pKd [3]: < 3.70
inhibition [4]: No effect
pKd [5]: 5.05
pIC50 [1]: 5.04
pKd [6]: 6.33
pIC50 [2]: 5.36

O=C1Nc2ccccc2/C1=C\c1cc(Br)c(O)c(Br)c1
pIC50 [1]: 3.76
pIC50 [2]: 3.75

CC(C)C[C@H](NC(=O)[C@H](Cc1c[nH]cn1)NC(=O)[C@H](CCC(=O)O)NC(=O)[C@H](Cc1c[nH]c2ccccc12)NC(=O)[C@@H](NC(=O)[C@H](Cc1ccc(O)cc1)NC(=O)[C@@H](NC(=O)[C@H](C)NC(=O)[C@H](CC(=O)O)NC(=O)CCCC[C@@H]1SC[C@@H]2NC(=O)N[C@@H]21)[C@@H](C)O)[C@@H](C)O)C(=O)N[C@@H](C)C(=O)N[C@@H](Cc1c[nH]c2ccccc12)C(=O)N1CCC[C@H]1C(=O)O
pKd [7]: 7.26
pIC50 [1]: 7.26

O=C1Nc2ccc(I)cc2/C1=C\c1cccc2nccn12
pIC50 [1]: < 4.90
pIC50 [2]: < 4.90

O=C1Nc2ccc(I)cc2/C1=C\c1cc(Br)cc(Br)c1O
pIC50 [1]: 4.82
